Test results reported in publication PMC5342591, “Development of a selected reaction monitoring mass spectrometry-based assay to detect asparaginyl endopeptidase activity in biological fluids” (Oncotarget, 2016).
Square brackets hold non-standard residues; d marks the D form. Peptide text beside a SMILES is read from it.

Assays:
[1] = target: T1, recombinant human AEP (rAEP) (Homo sapiens, UniProt Q99538); test: Michaelis-Menten / Lineweaver-Burk kinetics of rAEP with synthetic substrate, product measured by SRM-MS; assay type: biochemical; details: 16 hr incubation at 37°C; 10 ng rAEP; substrate 0.02 mM to 1.3 mM; Lineweaver-Burk plot; SRM-MS peak area of product; n = 3
T1 construct: 7xHis (N); purchased R & D Systems, Abingdon, UK; host or cells: NS0 murine myeloma cell line
T1 sequence (Q99538 18-323 limits assumed): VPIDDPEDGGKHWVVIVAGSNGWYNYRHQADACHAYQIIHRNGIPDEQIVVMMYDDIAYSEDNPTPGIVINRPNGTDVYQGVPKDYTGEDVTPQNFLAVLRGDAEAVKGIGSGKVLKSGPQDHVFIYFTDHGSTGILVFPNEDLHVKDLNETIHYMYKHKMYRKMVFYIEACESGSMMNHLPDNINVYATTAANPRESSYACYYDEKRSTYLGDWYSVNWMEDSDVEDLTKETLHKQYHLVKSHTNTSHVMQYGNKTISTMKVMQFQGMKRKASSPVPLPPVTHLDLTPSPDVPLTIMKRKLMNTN
Method: Figure 3 Development of Assay Conditions to Monitor AEP Activity in Plasma A. The level of hydrolysis of AEP substrate with respect to time. 2.44 ng/μl and 9.1 ng/μl of rAEP were spiked into a background of pH modified plasma (pH 5.8) and assayed by SRM-MS for the product peptide. Error bars shown are +/−SD (n = 3). B-C. Rate of AEP activity assayed with different concentrations of substrate (hpvFAANDVSKvph) ranging from 0.02 mM to 1.3 mM. Area under the curve, drawn from SRM-MS of the product peptide, was used to obtain the rate of reaction for AEP activity as shown in Michaelis-Menten Curve (B). […] D. The linearity and limit-of-detection of the AEP assay was investigated by measuring the amount of hydrolysis by 2.0 pg to 0.25 ng of rAEP spiked into 25 μl of plasma and product measured by SRM-MS of Error bars shown are +/−SEM (n = 3). The assay was repeated three times and a technical variance of 3-28% was calculated.
To optimise substrate concentration in our assay, 10 ng of rAEP was incubated with 0.02 mM to 1.3 mM of synthetic substrate for 1 hr, 4 hr (Supplementary Figure S2) or 16 hr (Figure 3B and 3C) at 37°C. The rate of reaction was determined from the amount of product formed per hour and used for Michaelis-Menten enzyme kinetic analysis (Figure 3B). […]
All samples were analysed on a 6500 Q-TRAP (AB Sciex, Warrington, UK) coupled to a nano Acquity uPLC (Waters Inc, MA, US). […]

[2] = Stability of cleaved substrate in plasma, SRM-MS; assay type: in vitro ADME; details: human plasma 25 μl diluted fivefold in assay buffer pH 5.8, 1 pmole to 1 amole spiked, ACN precipitation, n = 3
Method: Figure 2 Detection of Cleaved Substrate Peptide by Mass Spectrometry A-B. 10 ng of recombinant AEP (rAEP) was incubated with 1 μg (0.65 mM) synthetic substrate peptide (hpvFAANDVSKvph) overnight at 37°C. Samples were dried down by vacuum centrifuge and resuspended in LB. 5 pmole of the substrate was loaded on to the liquid chromatography column and cleaved substrate was analysed by SRM MS (A) followed by an DDA workflow (B). (A) Three SRM transitions (b4-481.25^+, b5-552.29^+, b6-623.33^+) were used to detect the cleaved substrate, sequenced as hpvFAAN (378.2^2+ precursor ion). The target peptide eluted at 32 min during the chromatographic gradient. (B) Product ion scans of precursor 378.2^2+ as analysed by DDA. C. […] Samples were resuspended in LB and analyzed by SRM MS. […]
For an assay to measure enzyme activity it is important that the product is stable for the duration of the assay and is present at a level that can be detected. The limit of detection (LOD) and stability of the product hpvFAAN were analysed by serial dilution down to 1 amole in the presence or absence of plasma using SRM MS analysis. This allowed the LOD to be calculated as 2 amole with a linear response up to 1 pmole without a plasma background (Figure 2C). […]

SMILES | Km [1] | Stability of the product in plasma [2]
CC(C)[C@H](NC(=O)[C@H](CC(=O)O)NC(=O)[C@H](CC(N)=O)NC(=O)[C@H](C)NC(=O)[C@H](C)NC(=O)[C@H](Cc1ccccc1)NC(=O)[C@H](NC(=O)[C@H]1CCCN1C(=O)[C@H](N)Cc1c[nH]cn1)C(C)C)C(=O)N[C@@H](CO)C(=O)N[C@@H](CCCCN)C(=O)N[C@@H](C(=O)N1CCC[C@@H]1C(=O)N[C@H](Cc1c[nH]cn1)C(=O)O)C(C)C [hpvFAANDVSKvph] (H-[dH][dP][dV]FAANDVSK[dV][dP][dH]-OH) | 400 µM | –
CC(C)[C@@H](NC(=O)[C@H]1CCCN1C(=O)[C@H](N)Cc1c[nH]cn1)C(=O)N[C@@H](Cc1ccccc1)C(=O)N[C@@H](C)C(=O)N[C@@H](C)C(=O)N[C@@H](CC(N)=O)C(=O)O [hpvFAAN] (H-[dH][dP][dV]FAAN-OH) | – | stable
